According to PMC5078989, “Targeted inhibition of the COP9 signalosome for treatment of cancer” (Nature Communications, 2016):

Test system: panel of cancer cell lines
Test: Cell viability (CellTiter-Glo) dose-response across cancer cell line panel;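 also: after 72 h compound incubation with CellTiter-Glo ATP readout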
Format: cell-based, human
Conditions: Homo sapiens
Source text: Next, we explored the effect of CSN5 inhibition on the viability of cancer cells. To obtain a comprehensive picture, we generated dose–response curves with a CSN5 inhibitor across more than 500 cancer cell lines in a previously described standardized setting[47] (Supplementary Data 1).
A standardized CellTiter-Glo Assay (Promega #G7570) based on the quantification of ATP was applied according to the manufacturer's protocol to measure the amount of viable cells in culture. In brief, cells were seeded into 384-well plates at optimal density for each cell line. After 4 h, compounds were added at different concentrations in growth medium and incubated for another 72 h in a humidifying chamber at 37 °C and 5% CO2. […] EC50 values were calculated from the plot of percentage of inhibition versus inhibitor concentration using the nonlinear regression analysis software Origin 7.5SR6 (OriginLab Corp.).

Compound CC(C)C[C@H](NC(=O)[C@H](Cc1ccccc1)NC(=O)c1cnccn1)B(O)O [Bortezomib] has an EC50 (NALM-6, NALM-6) of 8.08 nM, an EC50 (NB1, NB-1) of 7.56 nM and an EC50 (NB-4, NB-4) of 4.38 nM. It also gave an EC50 (NCI-H28, NCI-H28) of 10.1 nM, an EC50 (NCI-H82, cell line NCI-H82) of 1.25 nM and an EC50 (NCI-H146, cell line NCI-H146) of 10.9 nM. For the same compound, the EC50 (NCI-H196, NCI-H196) was 27 nM, the EC50 (NCI-H226, cell line NCI-H226) was 14.9 nM and the EC50 (NCI-H358, NCI-H358) was 10.3 nM. For the same compound, the EC50 (NCI-H441, NCI-H441) was 15.5 nM, the EC50 (NCI-H460, cell line NCI-H460) was 85.2 nM and the EC50 (NCI-H520, cell line NCI-H520) was 7.91 nM. The EC50 (NCI-H524, NCI-H524) was 7.72 nM, the EC50 (NCI-H596, NCI-H596) was 21 nM and the EC50 (NCI-H647, cell line NCI-H647) was 13.7 nM. For the same compound, the EC50 (NCI-H650, NCI-H650) was 118 nM, the EC50 (NCI-H661, cell line NCI-H661) was 17.3 nM and the EC50 (NCI-H716, NCI-H716) was 5.09 nM. The EC50 (NCI-H727, NCI-H727) was 27.4 nM, the EC50 (NCI-H810, cell line NCI-H810) was 11.8 nM and the EC50 (NCI-H838, NCI-H838) was 28.5 nM. The EC50 (NCI-H841, NCI-H841) was 18 nM, the EC50 (NCI-H1048, NCI-H1048) was 18.6 nM and the EC50 (NCI-H1092, NCI-H1092) was 19 nM. It also gave an EC50 (NCI-H1184) of 7.24 nM, an EC50 (NCI-H1299, cell line NCI-H1299) of 18.5 nM and an EC50 (NCI-H1341) of 11 nM. For the same compound, the EC50 (NCI-H1355, cell line NCI-H1355) was 27.8 nM, the EC50 (NCI-H1437, cell line NCI-H1437) was 19.5 nM and the EC50 (NCI-H1563, cell line NCI-H1563) was 57.8 nM. It also gave an EC50 (NCI-H1568, cell line NCI-H1568) of 12.2 nM, an EC50 (NCI-H1573, NCI-H1573) of 38.2 nM and an EC50 (NCI-H1581, cell line NCI-H1581) of 12.9 nM. For the same compound, the EC50 (NCI-H1623, NCI-H1623) was 14 nM, the EC50 (NCI-H1650, cell line NCI-H1650) was 3.29 nM and the EC50 (NCI-H1651, NCI-H1651) was 8.83 nM. The EC50 (NCI-H1666, cell line NCI-H1666) was 7.68 nM, the EC50 (NCI-H1693, NCI-H1693) was 5.61 nM and the EC50 (NCI-H1703, cell line NCI-H1703) was 9.11 nM. The EC50 (NCI-H1734, NCI-H1734) was 9.07 nM, the EC50 (NCI-H1781, cell line NCI-H1781) was 12.9 nM and the EC50 (NCI-H1792, cell line NCI-H1792) was 51.8 nM. The EC50 (NCI-H1793, cell line NCI-H1793) was 55.3 nM, the EC50 (NCI-H1869) was 3.35 nM and the EC50 (NCI-H1944, NCI-H1944) was 55.2 nM. For the same compound, the EC50 (NCI-H1975, cell line NCI-H1975) was 9.64 nM, the EC50 (NCI-H2023, NCI-H2023) was 24.1 nM and the EC50 (NCI-H2073, NCI-H2073) was 26.5 nM. It also gave an EC50 (NCI-H2087, cell line NCI-H2087) of 7.21 nM, an EC50 (NCI-H2122, cell line NCI-H2122) of 22.5 nM and an EC50 (NCI-H2126, cell line NCI-H2126) of 24.4 nM. For the same compound, the EC50 (NCI-H2170, cell line NCI-H2170) was 15.6 nM, the EC50 (NCI-H2172, NCI-H2172) was 51.5 nM and the EC50 (NCI-H2405, NCI-H2405) was 16.8 nM. The EC50 (NCI-H2452, NCI-H2452) was 21.7 nM, the EC50 (NCI-H3255, NCI-H3255) was 8.64 nM and the EC50 (NOMO-1, NOMO-1) was 11.9 nM. The EC50 (NUGC-3, cell line NUGC-3) was 11.9 nM, the EC50 (NUGC-4, cell line NUGC-4) was 16.2 nM and the EC50 (OAW-42, OAW42) was 14.4 nM. The EC50 (OC 316) was 8.98 nM, the EC50 (OC-314, OC 314) was 8.6 nM and the EC50 (OCI-AML2, OCI-AML2) was 8.61 nM. The EC50 (OCI-AML-3, OCI-AML3) was 5.45 nM, the EC50 (OCI-AML-5, OCI-AML5) was 9.17 nM and the EC50 (OCI-LY19, OCI-LY-19) was 11.2 nM. It also gave an EC50 (OCI-Ly3, OCI-LY3) of 5.53 nM, an EC50 (OCI-Ly10, OCI-LY10) of 5.53 nM and an EC50 (OCI-M1, OCI-M1) of 2.41 nM. It also gave an EC50 (OE19, cell line OE19) of 13.4 nM, an EC50 (OE33, cell line OE33) of 20.1 nM and an EC50 (ONCO-DG-1, ONCO-DG-1) of 11.6 nM. For the same compound, the EC50 (OS-RC-2, OS-RC-2) was 18.7 nM, the EC50 (OUMS-23, OUMS-23) was 14.1 nM and the EC50 (OV7, OV7) was 8.26 nM. It also gave an EC50 (OV56, cell line OV56) of 13.6 nM, an EC50 (OV-90, OV-90) of 15 nM and an EC50 (OVCAR-4, cell line OVCAR-4) of 12 nM. The EC50 (OVCAR-8, cell line OVCAR-8) was 19.3 nM, the EC50 (OVISE) was 9.83 nM and the EC50 (OVSAHO) was 9.15 nM. The EC50 (P3HR-1, P3HR-1) was 8.29 nM, the EC50 (P12-Ichikawa) was 1.82 nM and the EC50 (P31-FUJ, P31/FUJ) was 5.93 nM. For the same compound, the EC50 (PANC-1, cell line PANC-1) was 8.76 nM, the EC50 (PANC-03-27, cell line Panc 03.27) was 10.6 nM and the EC50 (PC-14, cell line PC-14) was 15.2 nM. It also gave an EC50 (PE/CA-PJ41 (clone D2)) of 9.74 nM, an EC50 (PEER) of 11.7 nM and an EC50 (PF-382, PF-382) of 2.73 nM. For the same compound, the EC50 (PL-21, PL-21) was 11.7 nM, the EC50 (PLC-PRF-5, PLC/PRF/5) was 7.53 nM and the EC50 (PSN1, cell line PSN1) was 10.4 nM. The EC50 (PaTu 8988s, PA-TU-8988S) was 13.7 nM, the EC50 (Panc 02.03, cell line Panc 02.03) was 11 nM and the EC50 (Panc 04.03, cell line Panc 04.03) was 22.6 nM. It also gave an EC50 (Panc1005, cell line Panc 10.05) of 5.21 nM, an EC50 (RCC10RGB) of 5.1 nM and an EC50 (RCH-ACV) of 2.1 nM. The EC50 (RD) was 7.69 nM, the EC50 (REH) was 4.69 nM and the EC50 (RKN) was 16.4 nM. For the same compound, the EC50 (RMUG-S) was 67.5 nM, the EC50 (RPMI 8402, RPMI-8402) was 5.89 nM and the EC50 (RPMI-7951, cell line RPMI-7951) was 10.1 nM. The EC50 (RPMI-8226, cell line RPMI 8226) was 3.33 nM, the EC50 (RS4-11, cell line RS4;11) was 1.7 nM and the EC50 (RT-112, RT-112) was 5.2 nM. It also gave an EC50 (RVH-421, RVH-421) of 8.58 nM, an EC50 (Raji, cell line Raji) of 10.7 nM and an EC50 (Rec1, cell line REC-1) of 9.53 nM. It also gave an EC50 (Rh18, cell line RH-18) of 31.3 nM, an EC50 (Rh41, cell line RH-41) of 7.35 nM and an EC50 (Ri-1, RI-1) of 4.9 nM. The EC50 (SCaBER, cell line SCaBER) was 14.3 nM, the EC50 (SEM) was 2.39 nM and the EC50 (SET-2, cell line Set-2) was 10.4 nM. For the same compound, the EC50 (SF-126, SF126) was 13.1 nM, the EC50 (SF-295, cell line SF-295) was 11.8 nM and the EC50 (SH-4, SH-4) was 4.59 nM. For the same compound, the EC50 (SH-10-TC, cell line SH-10-TC) was 16.1 nM, the EC50 (SHP77, SHP-77) was 12.1 nM and the EC50 (SIG-M5, SIG-M5) was 5.14 nM. The EC50 (SJRH30, cell line SJRH30) was 16.5 nM, the EC50 (SJSA-1, cell line SJSA-1) was 26.6 nM and the EC50 (SK-BR-3, cell line SK-BR-3) was 6.43 nM. It also gave an EC50 (SK-CO-1, SK-CO-1) of 5.8 nM, an EC50 (SK-ES1, cell line SK-ES-1) of 9.79 nM and an EC50 (SK-LMS-1, SK-LMS-1) of 8.32 nM. For the same compound, the EC50 (SK-LU-1, SK-LU-1) was 9.51 nM, the EC50 (SK-MEL3, cell line SK-MEL-3) was 8.95 nM and the EC50 (SK-MEL-1, SK-MEL-1) was 18.7 nM. It also gave an EC50 (SK-MEL-2, cell line SK-MEL-2) of 10.4 nM, an EC50 (SK-MEL-5, cell line SK-MEL-5) of 8.81 nM and an EC50 (SK-MEL-24, SK-MEL-24) of 19.7 nM. It also gave an EC50 (SK-MEL-30, cell line SK-MEL-30) of 10.7 nM, an EC50 (SK-MES-1, cell line SK-MES-1) of 15.8 nM and an EC50 (SK-N-AS, cell line SK-N-AS) of 7.25 nM. For the same compound, the EC50 (SK-N-DZ) was 8.89 nM, the EC50 (SK-N-FI, cell line SK-N-FI) was 11.5 nM and the EC50 (SK-N-SH) was 7.2 nM. It also gave an EC50 (SK-OV-3, cell line SK-OV-3) of 26.8 nM, an EC50 (SK-UT-1, SK-UT-1) of 8.52 nM and an EC50 (SKM-1, SKM-1) of 3.7 nM. It also gave an EC50 (SKNBE2, SK-N-BE(2)) of 8.65 nM, an EC50 (SNG-M) of 7.04 nM and an EC50 (SNU1, SNU-1) of 17 nM. The EC50 (SNU878, SNU-878) was 22.9 nM, the EC50 (SNU-16, cell line SNU-16) was 5.79 nM and the EC50 (SNU-119) was 19.4 nM. For the same compound, the EC50 (SNU-216, SNU-216) was 15 nM, the EC50 (SNU-449, SNU-449) was 29.9 nM and the EC50 (SNU-475, SNU-475) was 24.7 nM. The EC50 (SNU-626) was 15.1 nM, the EC50 (SNU-738) was 32.7 nM and the EC50 (SNU-1079) was 8.89 nM. It also gave an EC50 (SNU-C1, SNU-C1) of 3.82 nM and an EC50 (SNU-C5) of 16.7 nM.
